For one data set, the target named is PI3Kalpha (Homo sapiens (Human), UniProt P42336). In words: Cell-free kinase assay (ALPHA technology), PI3Kalpha. The format is biochemical. As to conditions: 100 μM ATP. The method, boiled down:
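Recombinant human GST- or His-tagged kinases were assayed for 1 h with ALPHA bead detection read after overnight standing. For PI3Kalpha: 1 ng enzyme, 100 μM ATP, 20 μM PIP2 in Hepes pH 7.4, detected by GST:Grp1/biotin-PIP3 competition. The p38alpha and Jnk assays followed the MAPK format (10 μM ATP, biotin-MBP, anti-phospho-MBP); IC50 from %-inhibition.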

The next data set has as its target Erk2 (Homo sapiens, UniProt P28482). In words: Cell-free kinase assay (ALPHA technology), Erk2. Format: biochemical. The conditions noted are these: 10 μM ATP. An outline of the steps: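 Recombinant tagged Erk2 kinase reactions were stopped with ALPHA bead mix […]. The signal was read after standing overnight. Controls were run in eight replicates and compounds in duplicate, and IC50 was fitted.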

For a further data set, the system named is BxPC3. Description: XTT assay, anti-proliferative effect, BxPC3. The format is cell-based. The conditions noted are these: Homo sapiens, BXPC-3; 45 h incubation. The procedure: (§1) The principle of this test is based on the intracellular reduction of the tetrazolium dye XTT (sodium 3′-[1-(phenylaminocarbonyl)-3,4-tetrazolium]-bis(4-methoxy-6-nitro)benzene sulfonic acid, Sigma) to a formazan dye by mitochondrial dehydrogenases. The dye is only formed by metabolically active cells and its photometrically measurable intensity is a quantitative indicator for the presence of living cells. The reduction of dye formation by incubation of the cells with substances serves as a parameter for the anti-proliferative effect.
(§2) The tumour cell lines (ATCC) were injected into 96-well microtitre plates in a defined cell number (5000 cells/well for BxPC3 and Hct116; 10000 cells/well for MDA MB468) and then incubated overnight in an incubator at 37° C., 5% CO2 and 95% air humidity. The test substances were prepared as stock solutions (10 mM) in DMSO. […] The cell plates were then incubated for 45 h in an incubator at 37° C., 5% CO2 and 95% air humidity.
(§3) For the detection reaction the substrate XTT was mixed with PMS (N-Methyl dibenzopyrazine methylsulfate, Sigma) and added to the cells so that a final concentration of 325 μg XTT/ml and 2.5 μg PMS/ml was obtained. It was then incubated for 3 h at 37° C., 95% air humidity. The formazan salt formed by the cellular dehydrogenases could then be quantified by adsorption at 490 nm.
(§4) The % inhibition value was evaluated by means of the following formula from the values for the optical densities measured in each case at 490 nm:
(§5) Eight determinations were made for each control and two for the substance samples. The 0% control contains no cells, the 100% control (proliferation control) contains no test substance. The EC50 values were determined using GraphPadPrism.
(In general: Tetrazolium assays rely on reduction of a dye to a coloured formazan, in cell work by metabolically active cells.)

For the next data set, the target named is p38alpha (Homo sapiens (Human), UniProt Q16539). In words: Cell-free kinase assay (ALPHA technology), p38alpha. The format is biochemical. The conditions noted are these: 10 μM ATP.
p38alpha, sequence (Q16539 whole entry): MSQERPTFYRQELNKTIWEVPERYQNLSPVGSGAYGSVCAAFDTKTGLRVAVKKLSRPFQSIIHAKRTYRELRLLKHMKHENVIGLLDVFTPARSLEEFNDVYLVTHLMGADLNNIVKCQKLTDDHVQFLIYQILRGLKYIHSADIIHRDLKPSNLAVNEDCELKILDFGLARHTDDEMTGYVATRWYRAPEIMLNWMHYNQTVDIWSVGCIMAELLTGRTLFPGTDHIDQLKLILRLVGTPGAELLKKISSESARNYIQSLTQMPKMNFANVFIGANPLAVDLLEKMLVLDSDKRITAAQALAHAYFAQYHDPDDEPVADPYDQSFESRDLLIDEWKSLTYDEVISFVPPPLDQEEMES
In another data set the test system is MDA-MB468. Description: XTT assay, anti-proliferative effect, MDA-MB468. The format is cell-based. The conditions noted are these: 45 h incubation. As for the experimental part:
as §1, §2, §3, §4, §5

Another data set has as its system Hct116. In words: XTT assay, anti-proliferative effect, Hct116. The conditions noted are these: 45 h incubation. Format: cell-based. As for the experimental part: as §1, §2, §3, §4, §5

PI3Kalpha, sequence (P42336 whole entry): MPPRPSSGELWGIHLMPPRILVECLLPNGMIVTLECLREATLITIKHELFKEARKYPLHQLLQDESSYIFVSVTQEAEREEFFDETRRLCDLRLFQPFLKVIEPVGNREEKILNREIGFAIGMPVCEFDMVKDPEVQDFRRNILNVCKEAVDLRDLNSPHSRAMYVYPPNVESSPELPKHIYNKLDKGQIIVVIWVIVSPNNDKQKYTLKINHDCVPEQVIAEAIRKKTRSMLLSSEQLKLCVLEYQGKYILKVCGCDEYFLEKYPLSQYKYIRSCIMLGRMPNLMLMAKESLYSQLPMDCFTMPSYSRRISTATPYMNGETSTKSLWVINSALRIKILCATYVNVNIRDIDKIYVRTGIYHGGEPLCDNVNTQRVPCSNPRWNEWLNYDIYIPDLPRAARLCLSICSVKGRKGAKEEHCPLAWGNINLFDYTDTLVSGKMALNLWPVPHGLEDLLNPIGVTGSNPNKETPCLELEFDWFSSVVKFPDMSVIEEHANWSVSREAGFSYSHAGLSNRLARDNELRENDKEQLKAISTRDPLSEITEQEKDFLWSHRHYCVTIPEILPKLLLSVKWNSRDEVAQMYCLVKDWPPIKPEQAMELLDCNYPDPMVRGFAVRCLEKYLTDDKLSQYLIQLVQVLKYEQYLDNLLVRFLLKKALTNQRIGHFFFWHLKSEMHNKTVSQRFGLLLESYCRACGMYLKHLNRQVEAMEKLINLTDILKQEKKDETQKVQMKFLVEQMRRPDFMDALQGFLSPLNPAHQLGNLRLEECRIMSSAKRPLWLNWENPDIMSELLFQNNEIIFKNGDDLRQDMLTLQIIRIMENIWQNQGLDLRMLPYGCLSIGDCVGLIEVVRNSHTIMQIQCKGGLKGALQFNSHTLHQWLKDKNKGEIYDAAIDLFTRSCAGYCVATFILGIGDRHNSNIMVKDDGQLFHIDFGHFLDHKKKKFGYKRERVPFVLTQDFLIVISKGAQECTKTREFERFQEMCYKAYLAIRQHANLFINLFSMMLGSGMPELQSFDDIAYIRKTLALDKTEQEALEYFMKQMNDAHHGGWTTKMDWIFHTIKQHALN
PI3Kalpha, sequence (P27986 whole entry partner): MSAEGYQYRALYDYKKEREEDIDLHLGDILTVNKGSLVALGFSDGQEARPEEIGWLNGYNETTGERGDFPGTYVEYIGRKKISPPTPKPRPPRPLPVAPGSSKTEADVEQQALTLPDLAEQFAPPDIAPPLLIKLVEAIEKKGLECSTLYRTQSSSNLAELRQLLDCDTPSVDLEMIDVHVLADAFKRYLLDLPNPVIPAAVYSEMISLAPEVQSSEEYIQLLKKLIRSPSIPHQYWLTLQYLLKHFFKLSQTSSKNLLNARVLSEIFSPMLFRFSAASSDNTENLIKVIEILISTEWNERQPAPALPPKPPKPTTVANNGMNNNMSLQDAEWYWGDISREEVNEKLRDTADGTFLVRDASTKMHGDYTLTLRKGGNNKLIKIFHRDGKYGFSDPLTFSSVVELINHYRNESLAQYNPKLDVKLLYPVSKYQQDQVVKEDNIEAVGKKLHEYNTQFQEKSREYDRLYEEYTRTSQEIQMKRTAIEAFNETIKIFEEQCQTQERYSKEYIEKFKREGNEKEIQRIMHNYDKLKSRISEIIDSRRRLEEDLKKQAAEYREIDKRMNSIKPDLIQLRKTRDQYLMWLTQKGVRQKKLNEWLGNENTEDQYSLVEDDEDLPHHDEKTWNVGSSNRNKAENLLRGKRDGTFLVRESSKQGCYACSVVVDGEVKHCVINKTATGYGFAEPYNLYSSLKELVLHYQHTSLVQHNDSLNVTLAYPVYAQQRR
Erk2, sequence (P28482 2-360 limits assumed): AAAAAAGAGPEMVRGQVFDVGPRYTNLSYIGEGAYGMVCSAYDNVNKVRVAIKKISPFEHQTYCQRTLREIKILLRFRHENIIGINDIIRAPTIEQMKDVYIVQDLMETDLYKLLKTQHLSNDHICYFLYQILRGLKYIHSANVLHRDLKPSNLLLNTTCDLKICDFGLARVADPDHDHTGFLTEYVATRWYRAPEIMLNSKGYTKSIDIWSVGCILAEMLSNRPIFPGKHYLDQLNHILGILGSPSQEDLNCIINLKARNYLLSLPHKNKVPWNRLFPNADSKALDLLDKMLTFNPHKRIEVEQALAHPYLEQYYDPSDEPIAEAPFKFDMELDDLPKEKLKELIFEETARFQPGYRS

What is called IC50 is the concentration that gives 50% inhibition. The EC50 is the concentration giving half of the maximal effect. For `CCNC(=O)Nc1ccc2ncc(Nc3ccc(C)cc3)nc2n1` [Compound 150, 1-Ethyl-3-(3-p-tolylamino-pyrido[2,3-b]pyrazin-6-yl)-urea], the IC50 at PI3Kalpha stood at 0.129 µM; against Erk2, 18.7 µM; at p38alpha, 18.1 µM. Also, the EC50 is 0.9 µM in the data set on BxPC3; 4.3 µM with MDA-MB468 (Homo sapiens, MDA-MB-468); 2.3 µM in the data set on Hct116 (Homo sapiens, HCT-116).
On to `CCNC(=O)Nc1ccc2ncc(-c3ccc(O)c(OC)c3)nc2n1.Cc1ccc(S(=O)(=O)O)cc1` [Compound 183, 1-Ethyl-3-[3-(4-hydroxy-3-methoxy-phenyl)-pyrido[2,3-b]pyrazin-6-yl]-urea p-Toluolsulfonate], for which the IC50 against PI3Kalpha was 2.8 µM; on Erk2 it was 0.203 µM; at p38alpha, more than 100 µM. The EC50 with MDA-MB468 turned out to be 4.3 µM; in the data set with Hct116 it was 2.1 µM.
As to `CCNC(=O)Nc1ccc2ncc(-c3cnn(C)c3)nc2n1` [Compound 173, 1-Ethyl-3-[3-(1-methyl-1H-pyrazol-4-yl)-pyrido[2,3-b]pyrazin-6-yl]-urea], the IC50 on PI3Kalpha is 2.4 µM; against Erk2, 0.107 µM; at p38alpha, more than 100 µM. Besides, the EC50 was more than 25 µM with MDA-MB468 (Homo sapiens, MDA-MB-468) and 9 µM in the data set with Hct116 (Homo sapiens, HCT-116).
A word on the melting point: it is the temperature, or range, at which the solid turns liquid. For `C=CCNC(=S)Nc1ccc2ncc(-c3ccc(O)cc3)nc2n1` [Compound 30, 1-allyl-3-[3-(4-hydroxy-phenyl)-pyrido[2,3-b]pyrazin-6-yl]-thiourea], the melting point was 230 °C (dec.). At PI3Kalpha, this molecule had an IC50 of 0.37 µM. At Erk2, this molecule registered an IC50 of 0.392 µM. The same molecule had an EC50 in the data set with BxPC3 of 12 µM. This molecule also yielded an IC50 at p38alpha of more than 100 µM. Besides, in the data set with MDA-MB468 (Homo sapiens, MDA-MB-468), the EC50 amounted to 4 µM. In addition, a half-maximal effect in the data set with Hct116 (Homo sapiens, HCT-116) (EC50) was put at 6 µM.
Consider `O=C(NCCCCO)Nc1ccc2ncc(-c3ccccc3)nc2n1` [Compound 146, 1-(4-Hydroxy-butyl)-3-(3-phenyl-pyrido[2,3-b]pyrazin-6-yl)-urea], for which the IC50 on PI3Kalpha is 1.1 µM; against Erk2, 0.155 µM; against p38alpha, more than 100 µM. Besides, the EC50 in the data set with BxPC3 is more than 50 µM; in the data set on MDA-MB468 (Homo sapiens, MDA-MB-468), approximately 20 µM; with Hct116 (Homo sapiens, HCT-116), 9.3 µM.
On to `CCNC(=O)Nc1ccc2ncc(-c3ccc(O)c(OC)c3)nc2n1` [Compound 124, 1-Ethyl-3-[3-(4-hydroxy-3-methoxy-phenyl)-pyrido[2,3-b]pyrazin-6-yl]-urea], for which the figures for the IC50 against PI3Kalpha, against Erk2 and at p38alpha were 0.49 µM, 0.062 µM and more than 100 µM, respectively. The EC50 in the data set with BxPC3 came out at 10 µM; in the data set with MDA-MB468 (Homo sapiens, MDA-MB-468), 10 µM; with Hct116 (Homo sapiens, HCT-116), 1.5 µM.

For the origin of these results see patent publication US8937068B2, “Pyridopyrazine derivatives and their use” (Zentaris GmbH, priority 2005, dated 2015).
